Assay results taken from patent US10392422B2, “Macrocyclic broad spectrum antibiotics” (priority 2014, dated 2019).

Tests used:
MRSA strain USA300 [1] = experiment: Checkerboard synergy assay (2D MIC) with imipenem; type: cell-based, Staphylococcus aureus; settings: many points of the isobologram (FIG. 1); synergy defined as sum of the FICs ≤0.5; 35° C., 22 hours
Description: 2D MIC assay or “checkerboard assays” are the most common method used to quantify synergistic or antagonistic interactions between two antibiotics with respect to potency (Hallander, H. O., et al., Antimicrob. Agents Chemother. 1982 22:743-752). In this assay in each axis of a 96-well plate contains a 2-fold dilution of a given agent, such that each well contains a unique combination of the agents being tested.
To create a checkerboard dilution scheme, imipenem was diluted in Mueller Hinton II Broth+0.002% Tween-80 to twice the final desired concentration, and six 2-fold serial dilutions were performed in the same media yielding seven imipenem concentrations. Dilutions of Compound 155 were prepared similarly except that ten dilutions were performed for a total of eleven concentrations. […]
MRSA strain USA300 was grown overnight at 35° C. on Mueller Hinton Agar plates, and colonies were suspended in Mueller Hinton II Broth+0.002% Tween-80 to a final density of 1*10^7 cfu/ml. […] The plate was incubated at 35° C. for 22 hours after which growth was determined via visual inspection. For each sub-MIC concentration of imipenem, the concentration of Compound 155 required to prevent visible growth was recorded, and the fractional inhibitor concentration (FIC) of each agent was calculated by dividing the concentration of each agent by MIC of the agent alone. […]

MRSA strain USA300 [2] = experiment: Time-kill assay; type: cell-based, Staphylococcus aureus; settings: 1 ug/mL imipenem plus 16 ug/mL Compound 155; initial density 1*10^7 cfu/mL; FIG. 2
Description: Time-kill experiments enable quantification of rate of bacterial growth or death in the presence of a fixed concentration of one or more antibiotics (Arhin. F., et. al., Current Protocols in Microbiology 17.1.1-17.1.22, February 2010). Time-kill experiments were performed in 96-well incubation plates using Mueller Hinton II Broth+0.002% Tween-80 as the growth media. Individual wells contained imipenem alone, Compound 155 alone, or a combination of both agents at various concentrations. MRSA strain USA300 was grown overnight at 35° C. on Mueller Hinton Agar plates, and colonies were suspended in Mueller Hinton II Broth+0.002% Tween-80 to a final density of 2*10^8 cfu/mL. To each well of the incubation plates, 5 uL of this suspension were added, resulting in an initial density of 1*10^7 cfu/mL. Plates were incubated at 35° C., and at various time points 30 ul samples were removed, mixed 1:1 with 25 mg/ml activated carbon, serially diluted in sterile phosphate buffered saline supplemented with 0.05% Tween 20, and spotted onto Mueller Hinton Agar plates to enable cfu quantification. Colonies were counted and the cfu/ml at each time point calculated by based on the dilution factor and volume spotted.

With `CCCCCCCCCCNCCC(=O)N[C@@H](CCCCN)C(=O)N(C)[C@@H]1C(=O)N[C@@H](C)C(=O)N[C@H](C(=O)N[C@@H](C)C(=O)N2CCC[C@H]2C(N)=O)Cc2ccc(O)c(c2)-c2cc1ccc2O.O=CO` [Compound 155] the “sum of the FICs (fractional inhibitor concentration) of Compound 155 and imipenem” value (MRSA strain USA300 [1]) was less than 0.5 and the “time-kill: reduction of viable cells, combination compared with either agent alone” value (MRSA strain USA300 [2]) was “synergistic”.
